{
  "source": "patent JP2008179567A",
  "about": "“ピラジン誘導体を有効成分とする抗がん剤” (Toray Industries Inc, priority 2007, dated 2008)",
  "key": {"[1]": {"assay": "Body weight and organ damage in mouse colon cancer model", "format": "in vivo", "details": "end of test, 50 mg/kg i.v.; sodium salt"}, "[2]": {"system": "tumor derived from Colon26 cells, mouse colon cancer model [Colon26細胞由来の腫瘍, マウス結腸癌モデル]", "assay": "Tumor growth inhibition in mouse colon cancer model (Colon26, BALB/c)", "format": "in vivo", "details": "50 mg/kg i.v., sodium salt"}},
  "data": [
    {"smiles": "Nc1nn(-c2cncc(-n3ccc(CC(=O)O)c3)n2)c2cc(Cl)ccc12", "note": "[参考例6, 2-{1-[6-(3-アミノ-6-クロロ-1H-インダゾリル)ピラジン-2-イル]ピロール-3-イル}酢酸]", "values": [
      {"measurement": "body weight difference from control group", "setting": "[1]", "value": "体重の差はなく"},
      {"measurement": "organ damage", "setting": "[1]", "value": "各臓器の障害は何ら認められなかった"},
      {"measurement": "estimated tumor volume", "setting": "[2]; from day 5 after start of dosing, compared with control group (Fig. 1)", "value": "対照群に比較して小さくなった"},
      {"measurement": "tumor growth rate", "setting": "[2]; day 7 after start of dosing, n=10, relative to estimated tumor volume on day 1, control 1068±197%, P=0.02 (Fig. 2)", "value": "493±81", "unit": "%"},
      {"measurement": "tumor weight", "setting": "[2]; day 15 after start of dosing, n=10, control 2.11±0.25 g, P=0.20", "value": "1.57 ± 0.31", "unit": "g"},
      {"measurement": "reduction of tumor weight", "setting": "[2]; day 15 after start of dosing, vs control group, P=0.20", "value": 25, "unit": "%"}
    ]}
  ]
}
